The source made the active and inactive calls. Cut-off read from the data, not from the text of the source: active = maximum fold increase above about 1.5; inconclusive = no clear call, values can overlap the other calls; inactive = below that; tested in PC3 cells.
The molecules below were run on HSV replication augmentation in cells, fold increase (assay: enhancers of HSV replication in host cells, fold increase, host cell viability (AID 1956)).
In the case of `CNC(=S)NNC(=O)c1ccc(=O)n(Cc2ccc(Cl)cc2Cl)c1`, the EC50 is reported as > 25 µM (inactive).
For `Cc1ccc(C(=O)NNC2=Nc3cccc4cccc2c34)cc1`, the EC50 was > 25 µM (inactive).
With `O=C(O)/C=C/C(=O)Nc1ccc(-n2ccc(C(F)(F)F)n2)cc1` the EC50 was > 25 µM (inactive).
With `Cn1c(C(=O)Nc2ccc3c(c2)OCCO3)cc2c(=O)n(C)c3ccccc3c21` the EC50 was > 25 µM (inactive).
`N#C/C(=C\Nc1ccc2cn[nH]c2c1)c1nc(-c2ccc(Cl)cc2)cs1` was tested, and the EC50 was 24.4 µM (inactive).
With `CC(C)(C)c1ccc(Cn2c(=N)n(CC(O)c3ccco3)c3ccccc32)cc1` (centres undefined) the EC50 was 11.4 µM (inactive).
For `CC(C)CC(N=C1NC(C)(C)Cc2ccccc21)C(=O)O` (centres undefined), the EC50 was > 25 µM (inactive).
`O=C(CC1NCCNC1=O)NC1Cc2ccccc2C1` (centres undefined) was tested, and the EC50 was > 25 µM (inactive).
With `Cc1ccc(-c2nc(NC(=O)CSc3nnc4scc(-c5ccccc5)n34)ns2)cc1` the EC50 was > 25 µM (inactive).
For `NNc1nc(-c2ccccc2Cl)nc2sc3c(c12)CCCC3`, the EC50 was > 25 µM (inactive).
`OC(CNCc1ccccc1)c1ccccc1` (centres undefined) was tested, and the EC50 was > 25 µM (inactive).
For `COc1cccc(N2CCN(Cc3nc4scc(-c5ccccc5)c4c(=O)[nH]3)CC2)c1`, the EC50 was 21.9 µM (inactive).
With `CCN(CC)c1ccc(CC2C(=O)N(C)C(=O)N(C)C2=O)cc1` the EC50 was > 25 µM (inactive).
In the case of `NS(=O)(=O)c1ccc(NC(=O)COC(=O)c2c3c(nc4ccccc24)/C(=C\c2ccc4c(c2)OCO4)CCC3)cc1`, the EC50 is reported as > 25 µM (inactive).
With `CS(=O)(=O)N1CC2CCCN2c2cc(C(F)(F)F)ccc21` (centres undefined) the EC50 was > 25 µM (inactive).
In the case of `Cc1ccc(-n2nc3c(c2NC(=O)c2ccc(OC(C)C)cc2)CS(=O)C3)cc1` (centres undefined), the EC50 is reported as > 25 µM (inactive).
`O=C(C1=NN[C@@H]2C(=O)N(c3cccc(F)c3)C(=O)[C@H]12)c1cnccn1` was tested, and the EC50 was > 25 µM (inactive).
`CN1C(=O)CC(c2ccco2)Sc2ccccc21` (centres undefined) was tested, and the EC50 was > 25 µM (inactive).
`CCOC(=O)c1c(NC(=O)C2COc3ccccc3O2)sc2c1CCN(Cc1ccccc1)C2` (centres undefined) was tested, and the EC50 was > 25 µM (inactive).
With `CCN1C(=O)/C(=C/C=C2\C=CN(CC)c3ccccc32)SC1=S` the EC50 was > 25 µM (inactive).
In the case of `CCOCCCNC(=O)CN1C(=O)C(CC)Oc2ccccc21` (centres undefined), the EC50 is reported as > 25 µM (inactive).
With `Nc1cccnc1Sc1cc(Cl)c(Cl)cc1Cl` the EC50 was > 25 µM (inactive).
`O=c1cc(N2CCCCC2)c(-c2ccccc2)nn1Cc1c(Cl)cccc1Cl` was tested, and the EC50 was > 25 µM (inactive).
With `COc1cccc(C(=O)N2CCN(CCCc3ccccc3)CC2)c1OC` the EC50 was > 25 µM (inactive).
With `Cc1nc2ccccc2c2oc(C(=O)N3CCc4ccccc4C3)cc12` the EC50 was > 25 µM (inactive).
In the case of `C=CCN1C(=O)[C@]2(c3ccccc31)C1CCCC=C1C(C#N)=C(N)C2(C#N)C#N` (some centres undefined), the EC50 is reported as > 25 µM (inactive).
With `O=C(O)/C(=C\c1ccc(Br)cc1)c1ccc(S(=O)(=O)N2CCCCC2)s1` the EC50 was > 25 µM (inactive).
In the case of `CN(CC1CCOCC1)C(=O)CC1C(=O)NCCN1CC1CCCCC1` (centres undefined), the EC50 is reported as > 25 µM (inactive).
In the case of `O=C1CC(/C=C/c2ccccn2)=Nc2ccccc2N1`, the EC50 is reported as 22.8 µM (inactive).
In the case of `CN1C(=O)C(C2c3ccccc3C(=O)N2Cc2ccc([N+](=O)[O-])cc2)C(=O)N(C)C1=O` (centres undefined), the EC50 is reported as > 25 µM (inactive).
For `C[N+]1=C(/C=C/Nc2ccccc2Cl)C(C)(C)c2ccccc21`, the EC50 was > 25 µM (inactive).
In the case of `CCCCn1ccnc1C(=O)c1cccc(S(=O)(=O)N2CC(C)CC(C)C2)c1` (centres undefined), the EC50 is reported as > 25 µM (inactive).
With `Cc1cccc(CSc2nnc(-c3cnccn3)n2C)c1` the EC50 was > 25 µM (inactive).
In the case of `O=C(c1cc(COc2ccc3ncccc3c2)on1)N1CCC(O)CC1`, the EC50 is reported as > 25 µM (inactive).
With `CSc1nc(Cl)c(Cc2ccc(OC(C)C)cc2)c(N(C)C)n1` the EC50 was > 25 µM (inactive).
For `Cc1cc(=O)[nH]c(SCC(=O)/C=C2\N(C)c3ccccc3C2(C)C)n1`, the EC50 was > 25 µM (inactive).
For `O=C1CCCC2=C1C(c1ccc(Cl)cc1)n1c(s/c(=C\c3ccc4ccncc4c3)c1=O)=N2` (centres undefined), the EC50 was > 25 µM (inactive).
With `Cc1cccc2nc3c(nc12)-c1ccccc1C3=O` the EC50 was > 25 µM (inactive).
In the case of `CCOCCCNC(=S)N1CCCN(c2nc3cc(C)c(C)cc3cc2C#N)CC1`, the EC50 is reported as > 25 µM (inactive).
`CC(C)(C)c1cc(-c2n[nH]c(=S)n2-c2ccccc2F)n[nH]1` was tested, and the EC50 was > 25 µM (inactive).
In the case of `CCOC(=O)c1c(NC(=O)c2cc3n(n2)C(C(F)(F)F)CC(c2cccs2)N3)sc(C)c1C` (centres undefined), the EC50 is reported as 16.6 µM (inactive).
In the case of `Cc1ccc(-c2nc(CSCC(=O)N3CCN(c4ccccn4)CC3)c(C)o2)cc1`, the EC50 is reported as 15.7 µM (inactive).
In the case of `COc1cccc(C2C=C(c3ccc(OC)cc3OC)Nc3nnnn32)c1` (centres undefined), the EC50 is reported as > 25 µM (inactive).
`O=C1NC(=O)N(Cc2ccco2)C(=O)/C1=C\c1cccn1CCOc1ccc(Cl)cc1` was tested, and the EC50 was > 25 µM (inactive).
`CC(C)Oc1ncnc2c1[nH]c1ccccc12` was tested, and the EC50 was 3.18 µM (inactive).
In the case of `CCOC(=O)c1cnc(COc2ccc(OC)cc2)[nH]c1=O`, the EC50 is reported as > 25 µM (inactive).
`O=C(Nc1ccccc1C(=O)Nc1ccccc1C(=O)NCc1ccco1)c1ccco1` was tested, and the EC50 was > 25 µM (inactive).
`COc1ccc(CCc2nnc(CCC(=O)N(C)Cc3ccnc4ccccc34)o2)cc1` was tested, and the EC50 was 13.1 µM (inactive).
For `Cc1ccc(Cn2c(=N)n(CC(O)c3ccco3)c3ccccc32)cc1` (centres undefined), the EC50 was > 25 µM (inactive).
`CC1=CC(C)(C)Nc2ccc(OC(=O)CN3C(=O)C4CCCCC4C3=O)cc21` (centres undefined) was tested, and the EC50 was > 25 µM (inactive).
With `O=C1NC(c2ccccc2)=N/C1=C/c1ccco1` the EC50 was > 25 µM (inactive).
For `COc1ccc(C2C(C#N)=C(N)N(c3sc4c(c3C#N)CCCC4)C3=C2C(=O)CC(C)(C)C3)cc1` (centres undefined), the EC50 was > 25 µM (inactive).
`C=CCNC(=S)Nc1ccc2nc(C)oc2c1` was tested, and the EC50 was > 25 µM (inactive).
With `N#C/C(=C\c1ccccc1[N+](=O)[O-])C(=O)NC1CCCCC1` the EC50 was > 25 µM (inactive).
With `Cc1cccc(N=C2NC(=O)/C(=C/C=C/c3ccco3)S2)c1` the EC50 was > 25 µM (inactive).
With `COc1ccc(OC2C(=O)N(Cc3ccc4c(c3)OCO4)C2c2sccc2C)cc1` (centres undefined) the EC50 was > 25 µM (inactive).
`CC1(C)CC(=O)C(C=Nc2ccc(C(=O)c3ccccc3)cc2N=CC2=C(O)CC(C)(C)CC2=O)=C(O)C1` was tested, and the EC50 was > 25 µM (inactive).
`COc1ccc(S(=O)(=O)/N=C2/NC(=O)/C(=C\c3ccco3)S2)cc1` was tested, and the EC50 was > 25 µM (inactive).
In the case of `CCN(CC)c1ccc(/C=N/Nc2nc(C)cc(C)n2)cc1`, the EC50 is reported as 23.2 µM (inactive).
For `CC(=O)c1cccc(NC(=O)/C=C/c2ccc([N+](=O)[O-])s2)c1`, the EC50 was 19 µM (inactive).
`COC(=O)C1=C(O)C(C(=O)OC)C(c2ccc(C)cc2)C(C#N)(C#N)C1c1ccc(C)cc1` (centres undefined) was tested, and the EC50 was > 25 µM (inactive).
`O=C(Nc1nc(-c2ccccn2)cs1)c1cccc(-n2cnnn2)c1` was tested, and the EC50 was > 25 µM (inactive).
With `CCc1ccc(NC(=O)COc2ccc(/C=C(/C#N)c3nc4ccccc4[nH]3)cc2OC)cc1` the EC50 was 24 µM (inactive).
In the case of `CC(C)N(C(=O)N1CCC(c2nc(-c3ccncc3)no2)CC1)C(C)C`, the EC50 is reported as > 25 µM (inactive).
`CCn1c(/C=C/N(C)c2ccccc2)[n+](CC)c2ccc(Cl)cc21` was tested, and the EC50 was 10.2 µM (inactive).
`O=C(O)c1ccc(/C=N/Nc2ncc(C(F)(F)F)cc2Cl)cc1` was tested, and the EC50 was > 25 µM (inactive).
With `N#CC1=C2N=C(N)c3ccccc3N2C2=C(C(=O)CCC2)C1c1ccc(Cl)cc1` (centres undefined) the EC50 was > 25 µM (inactive).
In the case of `Cc1ccccc1C(=O)NNc1ccc([N+](=O)[O-])cc1`, the EC50 is reported as > 25 µM (inactive).
In the case of `CC(C(=O)c1c[nH]c2ccccc12)N1CCc2ccccc2C1` (centres undefined), the EC50 is reported as > 25 µM (inactive).
In the case of `NC(=S)Nc1cc(Cl)cc(Cl)c1`, the EC50 is reported as > 25 µM (inactive).
`Cc1ccc(Cn2ccc(-c3cnc(-c4ccccc4)s3)n2)cc1` was tested, and the EC50 was > 25 µM (inactive).
With `Cc1ccc(Oc2nnc(-c3ccccc3)c3ccccc23)cc1` the EC50 was > 25 µM (inactive).
`CCOC(=O)COc1ccc(S(=O)(=O)Nc2ccc(C)cc2)cc1` was tested, and the EC50 was > 25 µM (inactive).
With `Oc1ccc(N=Nc2cccc(C(F)(F)F)c2)cc1C=Nc1ccc(N2CCOCC2)cc1` the EC50 was 18.8 µM (inactive).
`CCCN1C(=O)C2(C(C(=O)c3ccc(C)o3)=C(O)C(=O)N2CCCOC)c2ccccc21` (centres undefined) was tested, and the EC50 was > 25 µM (inactive).
`CC(=O)Nc1ccc(S(=O)(=O)Nc2cc(-c3ccccc3)nn2C)cc1` was tested, and the EC50 was > 25 µM (inactive).
For `COC(=O)c1c(C)[nH]c(O)c1C=Nc1ccc(C(C)C)cc1`, the EC50 was > 25 µM (inactive).
For `CCc1ccc2[nH]c(=O)c(CN(Cc3ccccc3OC)Cc3nnnn3Cc3ccco3)cc2c1`, the EC50 was > 25 µM (inactive).
In the case of `COc1ccccc1OP(=O)(Nc1cccnc1)Oc1ccccc1OC`, the EC50 is reported as > 25 µM (inactive).
With `O=S(=O)(Nc1ccc(Cc2ccncc2)cc1)c1ccc(Cl)c(Cl)c1` the EC50 was > 25 µM (inactive).
For `COc1ccccc1NC(=O)c1ccc(Br)o1`, the EC50 was > 25 µM (inactive).
With `Nc1ccccc1Nc1cc(-c2ccccc2)[nH]n1` the EC50 was 10.9 µM (inactive).
In the case of `CC1(C(O)(C#CCN2CCCCC2)c2ccccc2)CCCC1` (centres undefined), the EC50 is reported as > 25 µM (inactive).
For `Nc1c(Cl)ncnc1N/N=C/c1ccc2ccccc2n1`, the EC50 was 4.3 µM (inactive).
In the case of `COCc1ccc(C(=O)N2CCCC(C(=O)c3cc(F)ccc3F)C2)s1` (centres undefined), the EC50 is reported as > 25 µM (inactive).
`Cc1ccc(S(=O)(=O)N(C(=O)c2ccncc2)c2ccc(OC(=O)c3ccncc3)c3ccccc23)cc1` was tested, and the EC50 was 18.3 µM (inactive).
In the case of `CC(C)(C)c1ccc(Oc2ccc(N)cn2)cc1`, the EC50 is reported as > 25 µM (inactive).
With `CCOC(=O)C1=C(N)Oc2c(oc(CO)cc2=O)C1c1ccc(Cl)cc1` (centres undefined) the EC50 was > 25 µM (inactive).
With `Cn1cc(Br)c(NC(=O)/C=C/C(=O)O)n1` the EC50 was > 25 µM (inactive).

— PubChem BioAssay AID1956 (SRMLSC, 2009)
